Measured values: article PMC4078515 (Pharmaceuticals, 2014)
Several values for one entry are separate records, joined by “and”; a condition that tells them apart may be missing. Equal values may be shown once. Read-outs that look alike come from different tables or passages of the source.

How the values were obtained:
in vivo [1] = settings: guinea pig; for Tmax / AUC(0-t) / half-life / Cmax: male, Hartley albino
Method: (§1) The column used for chromatographic separation was a Waters Xbridge C18, 2.1 × 50 mm 2.5 µm at 30 °C. Mobile phase A: 10:40:50, 1.0% ammonium hydroxide solution in water, adjusted to pH 10.5 with formic acid: water: ACN. Mobile phase B: 10:90, 1.0% ammonium hydroxide solution in water, adjusted to pH 10.5 with formic acid: ACN. Flow rate: 250 µL/min, injection volume: 10 µL, run time: 10 min. Gradient, 100% A hold for 1 min, 0% B to 100% B over 4 min, hold 100% B for 4.5 min, 0% B at 9.51 min and equilibrate for 0.5 min.
(§2) The LTQ-XL ion trap mass spectrometer was coupled to the Accela LC system via an electrospray ionization (ESI) probe. The capillary temperature was maintained at 350 °C, sheath gas flow rate 50 arbitrary units, auxiliary gas flow rate 5 arbitrary units, sweep gas flow rate 0 arbitrary units, source voltage 3.20 kV, source current 100 µA, capillary voltage 43.00 V and tube lens 100 V. Compounds were detected in positive ion mode using selected ion monitoring (SIM). Hydroxybupropion was detected at (M+H)^+ = 256.1099, RT = 1.0 min, Rac-erythro-hydrobupropion (M+H)^+ = 242.1306, RT = 2.3 min, Rac-threo-hydrobupropion (M+H)^+ = 242.1306, RT 2.8 min, bupropion (M+H)^+ = 240.1150, RT = 2.0 min, N-methylbupropion (M+H)^+ = 254.1306, RT = 4.9 min, Rac-N-methyl-erythro-hydrobupropion (M+H)^+ = 256.1463, RT = 4.1 min and Rac-N-methyl-threo-hydrobupropion (M+H)^+ = 256.1463, RT = 4.6 min. The optimum detector conditions were found by tuning the instrument to be most sensitive for bupropion’s most abundant ion at 240 (m/z).
After acclimatization, male Hartley albino guinea-pigs, weighing 280–320 g were deprived of food for 16 h with free access to water (food withdrawal at 04:00 PM the day before). On the day of the experiment five guinea pigs per group were weighed then injected through the abdominal wall or fed by oral gavage with bupropion given at 40 mg/kg intraperitoneum. A second group of five guinea pigs were weighed then injected through the abdominal wall or fed by oral gavage with N-methyl bupropion given at 42 mg/Kg intraperitoneum.
Guinea pigs were placed under isoflurane anesthesia and approximately 100 µL of blood was collected using hematocrit capillaries or by cardiac puncture (terminal) into dry heparin/Li containing tubes before administration and then at five time points post-administration (0, 20, 40, 60, 120 and 180 min) for intraperitoneal study and seven time-points post administration (0, 20, 40, 60, 120, 180, 240 and 360 min) for oral study. After blood was collected, the tubes were inverted several times and placed on ice. The samples were centrifuged within 30 min maximum after sampling at 2205 g at 4 °C for 10 min. Plasma was transferred to polypropylene tubes and frozen with minimal delay at approximately −70 °C.
(§3) Guinea pig plasma was defrosted and centrifuged. Then, plasma (50 µL) was added to a 1.5 mL microcentrifuge tube. ACN (200 µL) was added and the mixture was vortex mixed. The resulting solution was centrifuged at 8000 g for 10 min. Supernatant (100 µL) was added to HCl (100 µL, 0.001 M). The solution was vortex mixed and added to a 100 µL micro-insert for LC-MS analysis.
Pharmacokinetic calculations were determined on Graphpad Prism software. Michaelis-Menten parameters were determined by non-linear regression analysis. The pharmacokinetic data was interpreted using a one-compartment model where the amount of drug present in the body at any given time t [A(t)] is described in Equation (1).
Drug concentration: A(t) = Cp(t)V(1) where Cp(t) and V are the drug concentration in the plasma and the apparent volume of distribution respectively. At least five sample time points were collected including at least one time point before tmax and three time points during the terminal phase for half-life estimation.

in vivo [2] = settings: Hartley, guinea pig, ip
Method: as §1, §2
An additional group of guinea-pigs were used for brain collection at a single time point (20 min). The day of the experiment four guinea pigs per group were weighed then injected through the abdominal wall with bupropion given at 40 mg/kg IP and N-methylbupropion given at 42 mg/Kg IP. At time 20 min post-injection, the animals were decapitated and the brain extracted and rinsed in cold physiological saline. The whole brain was fast frozen on dry ice and placed into pre-labeled vials and stored at approximately −70 °C (deep frozen).>
as §3
Guinea pig brain was defrosted. The whole brain was weighed into a beaker and 0.01 M HCl (20 mL) was added. The mixture was homogenized for 3 min on level 6 and allowed to settle for 10 min. An aliquot of the resulting suspension was centrifuged at 10,000 g for 10 min. Supernatant (250 µL) was added to ACN 750 µL. The mixture was centrifuged at 10,000 g for 10 min. 200 µL of the supernatant was added to 800 µL water. The clear solution was vortex mixed and analyzed by LC-MS.

in vivo [3] = assay type: in vivo; settings: guinea pig; for Kp at 20 min / concentration at 20 min: Hartley, in vivo
Method: Guinea pig plasma was defrosted and centrifuged.
Guinea pig brain was defrosted. […] Supernatant (250 µL) was added to ACN 750 µL.
Brain levels were determined on a separate group.

[4] = pH dependence, cited from earlier work
[5] = N-demethylation of N-methylbupropion to bupropion, substrate saturation study; assay type: in vitro ADME; settings: 0.1 mg/mL guinea pig S9 liver fraction, 50–1000 μM, 20 min, 37 °C, n = 3
Method: Guinea pig S9 liver fraction, NADPH regenerating solutions A and B were thawed rapidly to 37 °C, then kept on wet ice until ready for use. A number of different concentration substrate solutions were prepared were the maximum concentration of DMSO was 1%, and the concentration of guinea pig S9 liver fraction, NADP regenerating system solution B and phosphate buffer was fixed. After incubation for 5 min, NADP regenerating system solution A was added and the metabolism was initiated. Final volume was 100 μL. The tube was inverted twice and vortex mixed. The final concentrations in this solution was 50–1000 μM prodrug, 0.1 mg/mL guinea-pig S9 liver fraction, 1.3 mM NADP^+, 0.4 U/mL glucose-6-phosphate dehydrogenase and 1.0% DMSO. This solution was incubated for 20 min at 37 °C. The reaction was quenched by addition of 100 μL of ACN. […] The supernatant was analysed by LC-MS analysis.
Pharmacokinetic calculations were determined on Graphpad Prism software.
In selecting a guinea pig animal model for an in vivo study, it was prudent to first verify if an in vitro guinea pig model would carry out the same metabolic transformations. […] N-methylbupropion and bupropion concentrations were determined by LC-MS. […] Other unknown minor metabolites of N-methylbupropion were also detected but were not quantified at this stage. These were determined during the in vivo stage, discussed below.

[6] = test system: dopamine active transport (DAT); design: method as in preceding paper (paper 1 of this series); settings: in vitro; ref preceding paper (paper 1 of this series); cited from earlier work
[7] = test system: norepinephrine transport (NET); design: method as in preceding paper (paper 1 of this series); settings: in vitro; ref preceding paper (paper 1 of this series); cited from earlier work
[8] = ip, 42 mg/kg, Mean Cmax ± SD, plasma analyte after N-Methylbupropion dosed at 42 mg/Kg IP, n = 5
[9] = ip, 42 mg/kg, tmax, plasma analyte after N-Methylbupropion dosed at 42 mg/Kg IP, n = 5
[10] = 20 min post dose of 42 mg/Kg N-methyl bupropion via oral gavage, read-out: Brain levels
[11] = 20 min post dose of 42 mg/Kg N-methyl bupropion via oral gavage, read-out: Brain/plasma ratio
[12] = 20 min post dose of 42 mg/Kg N-methyl bupropion via oral gavage, read-out: Plasma levels
[13] = ip, 40 mg/kg, Cmax, plasma analyte after dosing bupropion 40 mg/Kg IP
[14] = ip, 40 mg/kg, tmax, plasma analyte after dosing bupropion 40 mg/Kg IP
[15] = 20 min post dose of 40 mg/Kg bupropion via oral gavage, read-out: Brain levels
[16] = 20 min post dose of 40 mg/Kg bupropion via oral gavage, read-out: Brain/plasma ratio
[17] = 20 min post dose of 40 mg/Kg bupropion via oral gavage, read-out: Plasma levels

Compound	AUC(0-t) (in vivo [1]; ip, 40 mg/kg)	half-life (in vivo [1]; ip, 40 mg/kg)	Cmax (in vivo [1]; ip, 40 mg/kg, Mean Cmax ± SD)	Cmax (in vivo [1]; [8])	Tmax (in vivo [1]; [9])	Kp at 20 min (in vivo [2]; 40 mg/kg)	Kp at 20 min (in vivo [2]; 42 mg/kg)	concentration at 20 min (in vivo [3]; [10])	Kp at 20 min (in vivo [3]; [11])	concentration at 20 min (in vivo [3]; [12])	Cmax (in vivo [1]; [13])	Tmax (in vivo [1]; [14])	concentration at 20 min (in vivo [3]; [15])	Kp at 20 min (in vivo [3]; [16])	concentration at 20 min (in vivo [3]; [17])	further results
C[C@H]1NC(C)(C)CO[C@]1(O)c1cccc(Cl)c1 (relative stereo) [BupOH, hydroxybupropion]	2330 ng·h/mL	408 min	950 ± 170 ng/mL	720 ± 140 ng/mL	60 min	6.3	7.61	–	–	–	–	–	–	–	–	Tmax (in vivo [1]; in vivo): 60 min; Tmax (in vivo [1]; ip, 40 mg/kg): 39.6 min; Kp at 20 min (in vivo [3]; po, 40 mg/kg): 0.5; concentration at 20 min (in vivo [3]; po, 40 mg/kg): 370 ng/g and 730 ng/mL; Kp at 20 min (in vivo [3]; po, 42 mg/kg): 0.4; concentration at 20 min (in vivo [3]; po, 42 mg/kg): 220 ng/g and 550 ng/mL
C[C@H]([C@H](O)c1cccc(Cl)c1)N(C)C(C)(C)C (racemic) [N-Me THB, Rac-N-methyl-threo-hydrobupropion]	–	–	–	80 ± 20 ng/mL	19.8 min	–	12.6	570 ng/g	14.2	40 ng/mL	–	–	–	–	–	–
CC(NC(C)(C)C)C(=O)c1cccc(Cl)c1 (stereo not drawn) [Bup, Bupropion]	–	–	–	380 ± 90 ng/mL	19.8 min	11.2	17.1	460 ng/g	9.2	50 ng/mL	869 ± 190 ng/mL	20 min	430 ng/g	4.78	90 ng/mL	Cmax (in vivo [1]; ip, 40 mg/kg, Mean Cmax ± SD, plasma analyte after Bupropion dosed at 40 mg/Kg IP, n = 5): 870 ± 190 ng/mL; Tmax (in vivo [1]; ip, 40 mg/kg, tmax, plasma analyte after Bupropion dosed at 40 mg/Kg IP, n = 5): 19.8 min; stability of freebase ([4]; aqueous): suffers from hydrolysis and oxidation at pH > 5; sample stability in plasma ([4]; plasma samples, ref 14,15 (supplement)): stable at low pH
CC(C(=O)c1cccc(Cl)c1)N(C)C(C)(C)C (stereo not drawn) [N-Me Bup, N-methylbupropion]	–	–	–	180 ± 80 ng/mL	19.8 min	–	20.2	–	–	20 ng/mL	–	–	–	–	–	Vmax [5]: 419.2 ± 13.65 pmol/min/mg S9; t½ (in vivo [1]; plasma analyte after N-Methylbupropion dosed at 42 mg/Kg via oral gavage, n = 5): <LOQ; Brain/plasma ratio (in vivo [3]; 20 min post dose of 42 mg/Kg N-methyl bupropion via oral gavage): <LOQ; Brain levels (in vivo [3]; 20 min post dose of 42 mg/Kg N-methyl bupropion via oral gavage, listed as N-MeBup, 42 mg/kg): <LOQ; Brain levels (in vivo [3]; 20 min post dose of 42 mg/Kg N-methyl bupropion via oral gavage, listed as N-methylbupropion, 42 mg/kg): below the limit of quantitation; activity at DAT compared to bupropion [6]: lower activity; activity at NET compared to bupropion [7]: lower activity
C[C@@H](NC(C)(C)C)[C@H](O)c1cccc(Cl)c1 [THB, threo-hydrobupropion]	2860 ng·h/mL	198 min	1220 ± 310 ng/mL	970 ± 280 ng/mL	60 min	6.54	12.1	620 ng/g	1.15	540 ng/mL	1230 ± 307 ng/mL	20 min	970 ng/g	1.17	830 ng/mL	Tmax (in vivo [1]; in vivo, 42 mg/Kg): 60 min; Tmax (in vivo [1]; ip, 40 mg/kg, tmax): 19.8 min
